According to PMC12040169 (PLOS Biology, 2025):

Assay: in vitro
Settings: human, hela cells, % viability

| SMILES | viability at 28.5 h, 10 µM [%] | viability at 28.5 h, 10 µM (bulk resorufin, single well) [%] |
| --- | --- | --- |
| Nc1nc(=O)n([C@@H]2O[C@H](CO)[C@H](O)C2O)cc1CO (stereo partly shown) [CBK201160] | 92.7 |  |
| Nc1nc(=O)n([C@H]2C[C@@H](O)[C@@H](CO)O2)cc1Br [CBK201161] | 97.1 |  |
| Nc1ncnc2c1nc(OCc1ccccc1)n2C1CC(O)C(CO)O1 (stereo not shown) [CBK201164] | 94.9 |  |
| Cc1ccc(S(=O)(=O)OC[C@H]2O[C@@H](n3cc(C)c(=O)[nH]c3=O)C[C@H]2O)cc1 [CBK201165] | 88.1 |  |
| Nc1n[nH]c(=O)c2c1ncn2[C@H]1C[C@@H](O)[C@@H](CO)O1 [CBK201169] | 93.7 |  |
| Cn1cc([C@H]2C[C@@H](O)[C@@H](CO)O2)c(=O)[nH]c1=O [CBK201171] | 88.9 |  |
| O=c1[nH]cc([C@@H]2O[C@H](CO)[C@H](O)C2O)c(=O)[nH]1 (stereo partly shown) [CBK201172] | 103 |  |
| O=C(O)/C=C/c1cn([C@H]2C[C@@H](O)[C@@H](CO)O2)c(=O)[nH]c1=O [CBK201174] | 92.9 |  |
| [N-]=[N+]=Nc1nc2c(N)ncnc2n1C1CC(O)C(CO)O1 (stereo not shown) [CBK201178] | 95.2 |  |
| O=c1[nH]c(=O)n([C@@H]2O[C@H](CO)[C@H](O)C2O)cc1Br (stereo partly shown) [CBK201180] | 87.2 |  |
| OCC1OC(n2cnc3c(Oc4ccccc4)ncnc32)CC1O (stereo not shown) [CBK201181] | 91.5 |  |
| Nc1ncnc2c1nc1n2[C@H]2C[C@@H](O)[C@H](O2)[C@H]1O [CBK201183] | 96.2 |  |
| Nc1ccn([C@H]2C[C@@H](O)[C@@H](CO)O2)c(=S)n1 [CBK201187] | 91.4 |  |
| O=C(/C=C/c1cn([C@H]2C[C@@H](O)[C@@H](CO)O2)c(=O)[nH]c1=O)ON1C(=O)CCC1=O [CBK201188] | 99.3 |  |
| Nc1nc2c(ccn2[C@@H]2O[C@H](CO)[C@H](O)C2O)c(=O)[nH]1 (stereo partly shown) [CBK201190] | 92 |  |
| Cn1cc([C@@H]2O[C@H](CO)[C@H](O)C2O)c(=O)n(C)c1=O (stereo partly shown) [CBK201191] | 97.1 |  |
| O=C1NC2=NOCCC2=CN1[C@H]1C[C@@H](O)[C@@H](CO)O1 [CBK201192] | 96.8 |  |
| Nc1nc(Cl)c2ncn([C@H]3C[C@@H](O)[C@@H](CO)O3)c2n1 [CBK201193] | 100 |  |
| O=c1ncccn1[C@@H]1O[C@H](CO)[C@H](O)C1O (stereo partly shown) [CBK201195] | 94 |  |
| Nc1ncnc2c1ncn2[C@@H]1O[C@H](CO)[C@H](O)C1O (stereo partly shown) [CBK201199] |  | 95.8 |
| Cc1cn(C2CC(O)C(CNC(=O)C(F)(F)F)O2)c(=O)[nH]c1=O (stereo not shown) [CBK201200] | 98 |  |
| Nc1ccn(C2CC(O)C(CO)O2)c(=O)n1 (stereo not shown) [CBK201203] | 95.4 |  |
| Nc1ncc([C@@H]2O[C@H](CO)[C@H](O)C2O)c(=O)[nH]1 (stereo partly shown) [CBK201205] | 78.1 |  |
| C[C@H]1CN([C@H]2C[C@@H](O)[C@@H](CO)O2)C(=O)NC1=O [CBK201206] | 96.9 |  |
| Nc1nc(N)c2ncn([C@H]3C[C@@H](O)[C@@H](CO)O3)c2n1 [CBK201208] | 97.4 |  |
| NC(=O)C1=CN([C@@H]2O[C@H](CO)[C@H](O)C2O)C2N=CN=C(N)C12 (stereo partly shown) [CBK201209] |  | 0.996 |

| SMILES | viability at 28.5 h, 10 µM [%] | viability at 28.5 h, 10 µM (bulk resorufin, single well) [%] |
| --- | --- | --- |
| COC1C(O)C(CO)OC1n1cc(I)c(=O)[nH]c1=O (stereo not shown) [CBK201211] | 95.1 |  |
| COC1C(O)C(CO)OC1n1ccc(NC(=O)c2ccccc2)nc1=O (stereo not shown) [CBK201212] | 94.8 |  |
| O=C(/C=C/c1cn(C2CC(O)C(CO)O2)c(=O)[nH]c1=O)NCCNC(=O)C(F)(F)F (stereo not shown) [CBK201214] | 98.2 |  |
| C=CCOc1nc2c(=O)[nH]c(NC(=O)C(C)C)nc2n1[C@H]1C[C@@H](O)[C@@H](CO)O1 [CBK201216] | 100 |  |
| Cc1cc2cn([C@@H]3O[C@H](CO)[C@H](O)C3O)c(=O)nc2[nH]1 (stereo partly shown) [CBK201219] | 98 |  |
| O=C(Nc1ncnc2c1nc(OCc1ccccc1)n2C1CC(O)C(CO)O1)c1ccccc1 (stereo not shown) [CBK201220] | 95.3 |  |
| Nc1nc(=O)n([C@H]2C[C@@H](O)[C@@H](CO)O2)cc1O [CBK201221] | 98.2 |  |
| Nc1ncnc2c1nc1n2[C@@H]2O[C@H](C1)[C@H](O)C2O (stereo partly shown) [CBK201224] | 108 |  |
| O=c1[nH]cnc2c1ncn2[C@H]1C[C@@H](O)[C@@H](CO)O1 [CBK201225] | 99.5 |  |
| Nc1nc(=O)n([C@H]2C[C@@H](O)[C@@H](CO)O2)cc1I [CBK201226] | 90.4 |  |
| COC1C(O)C(CO)OC1n1cc(C)c(N)nc1=O (stereo not shown) [CBK201227] | 108 |  |
| COCc1cn(C2CC(O)C(CO)O2)c(=O)[nH]c1=O (stereo not shown) [CBK201230] | 99.8 |  |
| Cc1cn(C2CC(O)C(C3N(c4ccccc4)CCN3c3ccccc3)O2)c(=O)[nH]c1=O (stereo not shown) [CBK201232] | 99.2 |  |
| Nc1n[nH]c(=O)c2ncn([C@H]3C[C@@H](O)[C@@H](CO)O3)c12 [CBK201233] | 91.4 |  |
| Cc1cnc(Cl)c2ncn([C@H]3C[C@@H](O)[C@@H](CO)O3)c12 [CBK201234] | 97.7 |  |
| O=c1nc2c(cn1[C@H]1C[C@@H](O)[C@@H](CO)O1)Sc1ccccc1N2 [CBK201237] | 100 |  |
| Nc1nc2c(ccn2[C@H]2C[C@@H](O)[C@@H](CO)O2)c(=O)[nH]1 [CBK201238] | 100 |  |
| NC1=NC(=O)N([C@H]2C[C@@H](O)[C@@H](CO)O2)CN1 [CBK201248] | 108 |  |
| O=C(NC/C=C/c1cn(C2CC(O)C(CO)O2)c(=O)[nH]c1=O)C(F)(F)F (stereo not shown) [CBK201249] | 109 |  |
| Nc1ncnc2c1ncn2[C@@H]1O[C@H](CCl)[C@H](O)C1O (stereo partly shown) [CBK201252] | 98.8 |  |
| COC1C(O)C(CO)OC1n1cc(F)c(=O)[nH]c1=O (stereo not shown) [CBK201253] | 91.4 |  |
| O=C1C=C([C@@H]2O[C@H](CO)[C@H](O)C2O)C(=O)N1 (stereo partly shown) [CBK201255] | 101 |  |
| Cc1cn(C2CC(O)C(CN=[N+]=[N-])O2)c(=O)[nH]c1=O (stereo not shown) [CBK201256] | 102 |  |
| CC#Cc1cn([C@H]2C[C@@H](O)[C@@H](CO)O2)c(=O)nc1N [CBK201257] | 105 |  |
| NCCCCCCNc1ncnc2c1ncn2[C@H]1C[C@@H](O)[C@@H](CO)O1 [CBK201260] | 105 |  |
| CC(C)C(=O)Nc1nc2c(nc(OCc3ccccc3)n2C2CC(O)C(CO)O2)c(=O)[nH]1 (stereo not shown) [CBK201264] | 91.8 |  |

| SMILES | viability at 28.5 h, 10 µM [%] | viability at 28.5 h, 10 µM (bulk resorufin, single well) [%] |
| --- | --- | --- |
| Cc1cn([C@@H]2O[C@H](CO)[C@H](O)C2O)c(=O)[nH]c1=O (stereo partly shown) [CBK201265] | 101 |  |
| COC1C(O)C(CO)OC1n1cc(F)c(SC)nc1=O (stereo not shown) [CBK201267] | 106 |  |
| COc1nc(N)nc2c1ncn2C1OC(CO)C(O)C1O (stereo not shown) [CBK201271] | 91.6 |  |
| CN(C)/C=N/c1ncnc2c1nc(Br)n2C1CC(O)C(CO)O1 (stereo not shown) [CBK201277] | 93.6 |  |
| C#CCOc1cn([C@H]2C[C@@H](O)[C@@H](CO)O2)c(=O)[nH]c1=O [CBK201278] | 91.7 |  |
| COC1C(O)C(CO)OC1n1cc(F)c(Oc2c(C)cc(C)cc2C)nc1=O (stereo not shown) [CBK201279] | 98.2 |  |
| Cc1cn2c(nc1=O)OC[C@H]1O[C@@H]2C[C@H]1O [CBK201280] | 93.5 |  |
| Nc1nc(=O)[nH]c2c1ncn2[C@@H]1O[C@H](CO)[C@H](O)C1O (stereo partly shown) [CBK201282] | 93.7 |  |
| CN(C)/C=N/c1nc(=O)[nH]c2c1ncn2C1CC(O)C(CO)O1 (stereo not shown) [CBK201285] | 118 |  |
| Nc1nc2c(sc(=O)n2[C@@H]2O[C@H](CO)[C@H](O)C2O)c(=O)[nH]1 (stereo partly shown) [CBK201286] | 96 |  |
| O=C1CCN([C@H]2C[C@@H](O)[C@@H](CO)O2)C(=O)N1 [CBK201288] | 93.8 |  |
| COC1C(O)C(CO)OC1n1cnc2cnc(N)nc21 (stereo not shown) [CBK201290] | 84.9 |  |
| Nc1nc2c([C@@H]3O[C@H](CO)[C@H](O)C3O)c[nH]c2c(=O)[nH]1 (stereo partly shown) [CBK201292] | 94.5 |  |
| Nc1ccn([C@@H]2O[C@H](CO)[C@H](O)C2O)c(=S)n1 (stereo partly shown) [CBK201293] | 90.9 |  |
| CN(C)c1nc2c(ncn2C2OC(CO)C(O)C2O)c(=O)[nH]1 (stereo not shown) [CBK201295] | 96.3 |  |
| COC1C(O)C(CO)OC1n1cc(I)c(N)nc1=O (stereo not shown) [CBK201296] | 92.2 |  |
| Nc1nc2c(nc(O)n2[C@@H]2O[C@H](CO)[C@H](O)C2O)c(=O)[nH]1 (stereo partly shown) [CBK201297] | 88.5 |  |
| Cc1cc2cn([C@H]3C[C@@H](O)[C@@H](CO)O3)c(=O)nc2[nH]1 [CBK201302] | 100 |  |
| O=c1[nH]c(=O)n([C@@H]2O[C@H](CO)[C@H](O)C2O)cc1I (stereo partly shown) [CBK201304] | 94.6 |  |
| CNc1ncnc2c1ncn2C1CC(O)C(CO)O1 (stereo not shown) [CBK201308] | 96.7 |  |
| O=C(/C=C/c1cn(C2CC(O)C(CO)O2)c(=O)[nH]c1=O)NCCCCCCNC(=O)C(F)(F)F (stereo not shown) [CBK201310] | 94.3 |  |
| CCNc1ccn([C@H]2C[C@@H](O)[C@@H](CO)O2)c(=O)n1 [CBK201311] | 95.2 |  |
| CNc1nc2c(ncn2C2CC(O)C(CO)O2)c(=O)[nH]1 (stereo not shown) [CBK201312] | 100 |  |
| O=c1[nH]c(=O)n([C@H]2C[C@@H](O)[C@@H](CO)O2)cc1O [CBK201317] | 101 |  |
